Where two headings read alike, the source gives them in different places.
Tests used:
[1] = test system: Locomotor Activity in Mice; assay: Inhibition of locomotor activity in mice; assay type: in vivo; conditions: for ED50: Mus musculus
Protocol: (§1) The compounds of Formula I are valuable dopaminergic agents. […] Thus, the compounds of Formula I were tested for their ability to inhibit locomotor activity in mice and rats, a measure of antipsychotic activity, according to the assay described by J. R. McLean, et al, Pharmacology, Biochemistry and Behavior, Vol. 8, pages 97-99 (1978); for their ability to bind to dopamine receptors as measured by their inhibition of [^3 H]spiroperidol binding in a receptor assay described by D. Grigoriadis and P. Seeman, Journal of Neurochemistry, Vol. 44, pages 1925-1935 (1985); and for their ability to effect dopamine synthesis in rats according to the protocol described by J. R. Walters and R. H. Roth, Naunyn-Schmiedebero's Archives of Pharmacology, Vol. 296, pages 5-14 (1976). The above test methods are incorporated herein by reference. The data in the table show the dopaminergic activity of representative compounds of Formula I.

dopamine receptors = assay: Inhibition of [^3 H] spiroperidol binding
Protocol: as §1

Brain Dopamine Synthesis = assay: % effects on brain dopamine synthesis in rats; assay type: in vivo; conditions: for change in vivo at 10 mg/kg: Rattus norvegicus
Protocol: as §1

[2] = ip, read-out: Inhibition of Locomotor Activity in Mice ED50, mice, IP (Table 2)
[3] = ip, read-out: Inhibition of Locomotor Activity in Mice ED50, mice, IP (Table 1)
[4] = ip, read-out: % Effects on Brain Dopamine Synthesis in Rats, rats, 10 mg/kg, IP (Table 1)
[5] = rats, 10 mg/kg, IP (Table 1), read-out: % Effects on Brain Dopamine Synthesis in Rats
[6] = mice, IP (Table 1), read-out: Inhibition of Locomotor Activity in Mice ED50

| Compound | ED50 [1, 3] [mg/kg] | IC50 (dopamine receptors; Table 1) [nM] | also measured |
| --- | --- | --- | --- |
| C1=C(c2ccccc2)CCC(N2CC=C(c3ccccc3)CC2)C1 (racemic) [A, (±)-1,2,3,6-tetrahydro-4-phenyl-1-(4-phenyl-3-cyclohexen-1-yl)pyridine, reference compound] | – | – | ED50 [1, 2]: 12.9 mg/kg; IC50 (dopamine receptors; Table 2): 1080 nM |
| C1=C(c2ccccc2)CCC(CN2CC=C(c3ccccc3)CC2)C1 (racemic) [B, (±)-1,2,3,6-tetrahydro-4-phenyl-1-[(4-phenyl-3-cyclohexen-1-yl)methyl]pyridine, reference compound] | – | – | ED50 [1, 2]: 13.2 mg/kg; IC50 (dopamine receptors; Table 2): 1000 nM |
| C1=C(c2ccccc2)CCC(CCN2CC=C(c3ccccc3)CC2)C1 (racemic) [Compound C, (±)-1,2,3,6-tetrahydro-4-phenyl-1-[2-(4-phenyl-3-cyclohexen-1-yl)ethyl]pyridine, reference compound] | – | – | ED50 [1, 2]: 5.8 mg/kg; IC50 (dopamine receptors; Table 2): 8020 nM |
| C1=C(c2ccccc2)CCN(CCC2CCC=C(c3ccccc3)C2)C1 (racemic) [Compound E, (±)-1,2,3,6-tetrahydro-4-phenyl-1-[2-(3-phenyl-3-cyclohexen-1-yl)ethyl]pyridine, reference compound] | – | – | ED50 [1, 2]: 10.9 mg/kg |
| C1=C(c2ccccc2)CCC(CN2CCN(c3ccccn3)CC2)C1 (racemic) [Compound G, (±)-1-[(4-phenyl-3-cyclohexen-1-yl)methyl]-4-(2-pyridinyl)piperazine, reference compound] | – | – | ED50 ([1]; mice, IP (Table 2), read-out: Inhibition of Locomotor Activity in Mice ED50): 25.9 mg/kg; IC50 (dopamine receptors; Table 2): 11200 nM |
| C1=C(c2ccccc2)CCN(C2CCC=C(c3ccccc3)C2)C1 (racemic) [D, (±)-1,2,3,6-tetrahydro-4-phenyl-1-(3-phenyl)-3-cyclohexen-1-yl)pyridine, reference compound] | – | – | ED50 [1, 2]: 30 mg/kg; IC50 (dopamine receptors; Table 2): 9210 nM |
| C1=C(c2ccccc2)CCCC1CN1CC=C(c2ccccc2)CC1 (racemic) [Example 1a, (±)-1,2,3,6-Tetrahydro-4-phenyl-1-[(3-phenyl-2-cyclohexen-1-yl)methyl]pyridine] | 2.5 | 420 | change in vivo at 10 mg/kg (Brain Dopamine Synthesis; [4]): -34% |
| C1=C(c2ccccc2)CCN(CC2CCC=C(c3cccs3)C2)C1 (racemic) [Example 2, (±)-1,2,3,6-Tetrahydro-4-phenyl-1-[[3-(2-thienyl)-3-cyclohexen-1-yl]methyl]pyridine] | 1.8 | 202 | change in vivo at 10 mg/kg (Brain Dopamine Synthesis; [4]): -9% |
| C1=C(c2ccccc2)CCN(CC2C=C(c3cccs3)CCC2)C1 (racemic) [Example 2a, (±)-1,2,3,6-Tetrahydro-4-phenyl-1-[[3-(2-thienyl)-2-cyclohexen-1-yl]methyl]pyridine] | 2.3 | 400 | – |
| Fc1ccc(C2=CCCC(CN3CC=C(c4ccccc4)CC3)C2)cc1 (racemic) [Example 3, (±)-1-[[3-(4-Fluorophenyl)-3-cyclohexen-1-yl]methyl]-1,2,3,6-tetrahydro-4-phenylpyridine] | 4.2 | 90 | – |
| Fc1ccc(C2=CC(CN3CC=C(c4ccccc4)CC3)CCC2)cc1 (racemic) [Example 3a, (±)-1-[[3-(4-Fluorophenyl)-2-cyclohexen-1-yl]methyl]-1,2,3,6-tetrahydro-4-phenylpyridine] | 2.9 | 1070 | change in vivo at 10 mg/kg (Brain Dopamine Synthesis; [4]): -41% |
| Fc1ccc(C2=CCCC(CN3CCN(c4ccccn4)CC3)C2)cc1 (racemic) [Example 5, (±)-1-[[3-(4-Fluorophenyl)-3-cyclohexen-1-yl]methyl]-4-(2-pyridinyl)piperazine] | 1.2 | 143 | change in vivo at 10 mg/kg (Brain Dopamine Synthesis; [5]): -58% |
| Fc1ccc(C2=CC(CN3CCN(c4ccccn4)CC3)CCC2)cc1 (racemic) [Example 5a, (±)-1-[[3-(4-Fluorophenyl)-2-cyclohexen-1-yl]methyl]-4-(2-pyridinyl)piperazine] | – | 279 | ED50 [1, 6]: 2.2 mg/kg; change in vivo at 10 mg/kg (Brain Dopamine Synthesis; [5]): -48% |
| C1=C(c2ccccc2)CC(CN2CCN(c3ccccc3)CC2)CC1.Cl.Cl (racemic) [Example 22, (±)-1-phenyl-4-[(3-phenyl-3-cyclohexen-1-yl)methyl]-piperazine dihydrochloride] | – | 424 | ED50 [1, 6]: 2.1 mg/kg |
| C1=C(c2ccccc2)CC(CN2CCN(c3ncccn3)CC2)CC1 (racemic) [Example 23, (±)-2-[4-[[3-phenyl-3-cyclohexen-1-yl)methyl]-1-piperazinyl]pyrimidine] | – | 354 | ED50 [1, 6]: 8.5 mg/kg |
| C1=C(c2ccccc2)CC(CN2CC=C(c3cccs3)CC2)CC1.Cl (racemic) [Example 24, (±)-1,2,3,6-tetrahydro-1-[(3-phenyl-3-cyclohexen-1-yl)methyl]-4-(2-thienyl)pyridine monohydrochloride] | 1.5 | 170 | – |
| C1=C(c2ccccc2)CC(CN2CCN(c3ccccn3)CC2)C1 (racemic) [Example 25, (±)-1-[(3-phenyl-3-cyclopenten-1-yl)methyl]-4-(2-pyridinyl)piperazine] | – | 190 | ED50 [1, 6]: 2.7 mg/kg; change in vivo at 10 mg/kg (Brain Dopamine Synthesis; [5]): -45% |
| C1=C(c2ccccc2)CCN(CC2CCC=C(c3c[nH]c4ccccc34)C2)C1 (racemic) [Example 26, (±)-3-[5-[(3,6-dihydro-4-phenyl-1(2H)-pyridinyl)methyl]-1-cyclohexen-1-yl]-1H-indole] | 2 | 288 | change in vivo at 10 mg/kg (Brain Dopamine Synthesis; [4]): -23% |
| C1=C(c2ccccc2)CCN(CC2CCC=C(c3ccccc3)C2)C1 (single isomer, unassigned; (+)) [Example 6, (+)-1,2,3,6-Tetrahydro-4-phenyl-1-[(3-phenyl-3-cyclohexen-1-yl)methyl]pyridine] | – | 227 | Inhibition of Locomotor Activity in Mice ED50 ([1]; mice, IP (Table 1)): 1.0 mg/kg; % Effects on Brain Dopamine Synthesis in Rats (Brain Dopamine Synthesis; rats, 10 mg/kg, IP (Table 1)): -50% |
| C1=C(c2ccccc2)CCN(CC2CCC=C(c3ccccc3)C2)C1 (single isomer, unassigned; (-)) [Example 6a, (-)-1,2,3,6-Tetrahydro-4-phenyl-1-[(3-phenyl-3-cyclohexen-1-yl)methyl]pyridine] | – | 420 | Inhibition of Locomotor Activity in Mice ED50 ([1]; mice, IP (Table 1)): 5.6 mg/kg; % Effects on Brain Dopamine Synthesis in Rats (Brain Dopamine Synthesis; rats, 10 mg/kg, IP (Table 1)): -34% |
| Cl.Clc1ccc(C2=CCC[C@@H](CN3CC=C(c4ccccc4)CC3)C2)cc1 [Example 7, (R)-1-[[3-(4-chlorophenyl)-3-cyclohexen-1-yl]methyl]-1,2,3,6-tetrahydro-4-phenylpyridine monohydrochloride] | 4.4 | – | change in vivo at 10 mg/kg (Brain Dopamine Synthesis; [4]): -18% |
| Clc1ccc(C2=C[C@H](CN3CC=C(c4ccccc4)CC3)CCC2)cc1 [Example 7a, (R)-1-[[3-(4-chlorophenyl)-2-cyclohexen-1-yl]methyl]-1,2,3,6-tetrahydro-4-phenylpyridine] | 7.5 | 2320 | – |
| C1=C(c2ccccc2)CCN(C[C@@H]2CCC=C(c3cncnc3)C2)C1.Cl [Example 14, (R)-5-[5-[(3,6-dihydro-4-phenyl-1(2H)-pyridinyl)methyl]-1-cyclohexen-1-yl]pyrimidine monohydrochloride] | 0.4 | 438 | – |
| C1=C(c2cncnc2)CCC[C@H]1CN1CC=C(c2ccccc2)CC1.Cl.Cl [Example 14a, (R)-5-[3-[(3,6-dihydro-4-phenyl-1(2H)-pyridinyl)methyl]-1-cyclohexen-1-yl]pyrimidine dihydrochloride] | 0.07 | – | – |
| C1=C(c2ccsc2)CCC[C@H]1CN1CC=C(c2ccccc2)CC1 [Example 15, (R)-1,2,3,6-tetrahydro-4-phenyl-1-[[3-(3-thienyl)-2-cyclohexen-1-yl]methyl]pyridine] | 1.3 | 251 | – |
| CN(C)c1ccc(C2=C[C@H](CN3CC=C(c4ccccc4)CC3)CCC2)cc1 [Example 16a, (R)-4-[3-[(3,6-dihydro-4-phenyl-1(2H)-pyridinyl)methyl]-1-cyclohexen-1-yl]-N,N-dimethylbenzeneamine] | 0.7 | 660 | – |
| C1=C(c2cnc3ccccc3c2)CCC[C@H]1CN1CC=C(c2ccccc2)CC1 [Example 17a, (R)-3-[3-[(3,6-dihydro-4-phenyl-1(2H)-pyridinyl)methyl]-1-cyclohexen-1-yl]quinoline] | 1.7 | 1110 | – |
| C1=C(c2ccccc2)CCN(C[C@@H]2CCC=C(c3ccc4c(c3)OCO4)C2)C1.Cl [Example 18, (R)-1-[[3-(1,3-benzodioxol-5-yl)-3-cyclohexen-1-yl]methyl]-1,2,3,6-tetrahydro-4-phenylpyridine monohydrochloride] | 0.8 | 432 | – |
| C1=C(c2ccccc2)CCN(C[C@@H]2CCC[C@@H](c3ccccc3)C2)C1.Cl [Example 20a, (1R-trans) 1,2,3,6-tetrahydro-4-phenyl-1-[(3-phenylcyclohexyl)methyl]pyridine monohydrochloride] | 0.5 | 874 | – |
| (R)-1,2,3,6-tetrahydro-1-[[3-(2-methylphenyl)-2-cyclohexen-1-yl]methyl]-4-phenylpyridine monohydrochloride compound with (R)-1,2,3,6-tetrahydro-1-[[3-(2-methylphenyl)-3-cyclohexen-1-yl]methyl]-4-phenylpyridine [Example 13] | – | – | Inhibition of Locomotor Activity in Mice ED50 ([1]; mice, IP (Table 1)): 2.3 mg/kg |

— US5314896A, “1,3-substituted cycloalkenes and cycloalkanes as central nervous system agents” (priority 1992, dated 1994)
